Experimental data taken from patent US20090104145A1, “Mixtures of Anthranilamide Invertebrate Pest Control Agents” (priority 2004, published 2009).

Experiments:
Test in all cases: whole plant or invertebrate
Type in all cases: in vivo
[1] = test system: silverleaf whitefly (Bemisia argentifolii Bellows and Perring); settings: Table 2B; rate 10 ppm, compound alone
Procedure: (§1) The pest control protection afforded by the mixtures or compositions is not limited, however, to these species. The analysis of synergism or antagonism between the mixtures or compositions was determined using Colby's equation. The average % mortality data for the test compounds alone were inserted into the Colby's equation. If the observed average % mortality was higher than “p”, the expected % mortality, the mixture or composition had synergistic effects. If the observed average % mortality was equal to or lower than the expected mortality, the mixture or composition either had no synergistic effect or an antagonistic effect. In these tests, Compound 1 is the compound of Formula 1.
For evaluating control of silverleaf whitefly (Bemisia argentifolii Bellows and Perring) through contact and/or systemic means, each test unit consisted of a small open container with a 12- to 14-day-old cotton plant inside. This was pre-infested by placing test units into cages infested with adult whiteflies so that oviposition on the cotton leaves could occur. The adults were removed from the plants with an air-blast nozzle, and the test units were capped. The test units were then stored 2 to 3 days before spraying.
(§2) Test compounds were formulated using a solution containing 10% acetone, 90% water and 300 ppm X-77® Spreader Lo-Foam Formula non-ionic surfactant containing alkylarylpolyoxyethylene, free fatty acids, glycols and isopropanol (Loveland Industries, Inc.) to provide the desired concentration in ppm. Formulated test solutions were then applied in 1 mL volumes through a SUJ2 atomizer nozzle with ⅛ JJ custom body (Spraying Systems Co.) positioned 1.27 cm (0.5 inches) above the top of each test unit.
The results for all experimental compositions in this test were replicated three times. After spraying of the formulated test composition, each test unit was allowed to dry for 1 hour and the cap removed. The test units were held for 13 days in a growth chamber at 28° C. and 50-70% relative humidity.

[2] = test system: corn planthopper (Pereginus maidis); settings: rate 0.4 ppm
Procedure: as §1, §2
For evaluating control of corn planthopper (Pereginus maidis) through contact and/or systemic means, each test unit consisted of a small open cylindrical container with a 3- to 4-day-old corn (maize) plant (spike) inside. White sand was added to the top of the soil prior to application. Test compounds were formulated and sprayed with 3 replications as described for Test A. After spraying, the test units were allowed to dry for 1 hour before they were post-infested with 10 to 20 corn planthoppers (18- to 20-day-old nymphs) by sprinkling them onto the sand with a salt shaker. A black, screened cap was placed on the top of each container. The test units were held for 6 days in a growth chamber at 19-21° C. and 50-70% relative humidity.

[3] = test system: cotton melon aphid (Aphis gossypii Glover); settings: rate 2 ppm
Procedure: as §1, §2
For evaluating control of cotton melon aphid (Aphis gossypii Glover) through contact and/or systemic means, each test unit consisted of a small open container with a 6- to 7-day-old cotton plant inside. This was pre-infested by placing on a leaf of the test plant 30 to 40 aphids on a piece of leaf excised from a culture plant (cut-leaf method). The larvae moved onto the test plant as the leaf piece desiccated. After pre-infestation, the soil of the test unit was covered with a layer of sand.
Test compounds were formulated and sprayed as described for Test A. The applications were replicated three times. After spraying of the formulated test compounds, each test unit was allowed to dry for 1 hour and then a black, screened cap was placed on top. The test units were held for 6 days in a growth chamber at 19-21° C. and 50-70% relative humidity.

Substance: dinotefuran
- % mortality (obs) [1]: 74%
- % mortality (obs) [2]: 86%
- % mortality (obs) [3]: 64%
